Legend:
Type in all cases: in vivo
[1] = test system: Amaranthus retroflexus (AMARE); test: Herbicidal post-emergence action; settings: 1280 g/ha, assessed after ca. 3 weeks
How it was run: (§1)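 Applied rates were 1280 or 320 g/ha, as aqueous WP or EC spray with 0.5% additive at 600 l water/ha onto single-leaf-stage plants grown 2–3 weeks in sandy loam. Effect was rated visually about 3 weeks later, 0% matching controls and 100% plants dead.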

[2] = test system: Digitaria sanguinalis (DIGSA); test: Herbicidal post-emergence action; settings: 320 g/ha, assessed after ca. 3 weeks
How it was run: as §1

[3] = test system: Echinochloa crus-galli (ECHCG); test: Herbicidal post-emergence action; settings: 1280 g/ha, assessed after ca. 3 weeks
How it was run: as §1

Lolium rigidum (LOLRI) [4] = test: Herbicidal post-emergence action; settings: 320 g/ha, assessed after ca. 3 weeks
How it was run: as §1

[5] = test system: Alopecurus myosuroides (ALOMY); test: Herbicidal post-emergence action; settings: 1280 g/ha, assessed after ca. 3 weeks
How it was run: as §1

Avena fatua (AVEFA) [6] = test: Herbicidal post-emergence action; settings: 1280 g/ha, assessed after ca. 3 weeks
How it was run: as §1

Setaria viridis (SETVI) [7] = test: Herbicidal post-emergence action; settings: 1280 g/ha, assessed after ca. 3 weeks
How it was run: as §1

[8] = test system: Lolium multiflorum (LOLMU); test: Herbicidal post-emergence action; settings: 1280 g/ha, assessed after ca. 3 weeks
How it was run: as §1

Brassica napus (BRSNW) [9] = test: Post-emergence effects on crop plants; settings: crop plant Brassica napus (BRSNW)
Excerpt: (§2) Seeds of mono- and dicotyledonous weed plants and crop plants were sown, in plastic or organic planting pots, in sandy loam, covered with soil and grown in a greenhouse under controlled growth conditions. 2 to 3 weeks after sowing, the test plants were sprayed in the single-leaf stage. The compounds according to the invention, formulated in form of wettable powders (WP) or as emulsifiable concentrates (EC), were sprayed onto the green plant parts as aqueous suspension or emulsion, with the addition of 0.5% of an additive, at an application rate of 600 1 of water/ha (converted). The test plants were placed in the greenhouse for ca. 3 weeks under optimum growth conditions, and then the effect of the preparations was assessed visually in comparison with untreated controls (herbicidal effect in percent (%): 100% effect=plants have died off, 0% effect=as control plants).
(§3) Tables D1 to D3 below show the effects of selected compounds of the general formula (I) according to table 1 on various crop plants and an application rate corresponding to 320 g/ha or below obtained by the experimental procedure mentioned above in biology section B.

[10] = test system: Digitaria sanguinalis (DIGSA); test: Herbicidal pre-emergence action; settings: 320 g/ha, graded after ca. 3 weeks
How it was run: (§4)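 Sown seeds in sandy loam received the formulated compounds on the covering soil at application rates up to 1280 g/ha, applied in 600 l water/ha with 0.5% additive. Damage was graded visually after about 3 weeks relative to untreated plants.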

[11] = test system: Echinochloa crus-galli (ECHCG); test: Herbicidal pre-emergence action; settings: 1280 g/ha, graded after ca. 3 weeks
How it was run: as §4

[12] = test system: Polygonum convolvulus (POLCO); test: Herbicidal pre-emergence action; settings: graded after ca. 3 weeks
How it was run: as §4

Veronica persica (VERPE) = test: Herbicidal pre-emergence action; settings: 1280 g/ha, graded after ca. 3 weeks
How it was run: as §4

Lolium rigidum (LOLRI) [13] = test: Herbicidal pre-emergence action; settings: 320 g/ha, graded after ca. 3 weeks
How it was run: as §4

[14] = test system: Alopecurus myosuroides (ALOMY); test: Herbicidal pre-emergence action; settings: graded after ca. 3 weeks
How it was run: as §4

Avena fatua (AVEFA) [15] = test: Herbicidal pre-emergence action; settings: graded after ca. 3 weeks
How it was run: as §4

Setaria viridis (SETVI) [16] = test: Herbicidal pre-emergence action; settings: graded after ca. 3 weeks
How it was run: as §4

[17] = test system: Lolium multiflorum (LOLMU); test: Herbicidal pre-emergence action; settings: 1280 g/ha, graded after ca. 3 weeks
How it was run: as §4

[18] = test system: Cyperus esculentus (CYPES); test: Herbicidal pre-emergence action; settings: 1280 g/ha, graded after ca. 3 weeks
How it was run: as §4

[19] = test system: Polygonum convolvulus (POLCO); test: Herbicidal post-emergence action; settings: 1280 g/ha, assessed after ca. 3 weeks
How it was run: as §1

Stellaria media (STEME) = test: Herbicidal post-emergence action; settings: 1280 g/ha, assessed after ca. 3 weeks
How it was run: as §1

Glycine max (GLXMA) [20] = test: Post-emergence effects on crop plants; settings: 320 g/ha, crop plant
Excerpt: as §2, §3

Zea Mays (ZEAMX) [21] = test: Post-emergence effects on crop plants; settings: 320 g/ha, crop plant
Excerpt: as §2, §3

Viola tricolor (VIOTR) = test: Herbicidal pre-emergence action; settings: 320 g/ha, graded after ca. 3 weeks
How it was run: as §4

Glycine max (GLXMA) [22] = test: Pre-emergence effects on crop plants; settings: 320 g/ha, crop plant
Excerpt: (§5) Seeds of mono- and dicotyledonous weed plants and crop plants were sown, in plastic or organic planting pots, in sandy loam and covered with soil. The compounds according to the invention, formulated in the form of wettable powders (WP) or as emulsifiable concentrates (EC), were applied to the surface of the covering soil as aqueous suspension or emulsion, with the addition of 0.5% of an additive, at an application rate of 600 1 of water/ha (converted).
(§6) Following treatment, the pots were placed in a greenhouse and kept under optimum growth conditions for the test plants. The visual grading of the damage to the test plants was carried out after ca. 3 weeks in comparison to untreated controls (herbicidal effect in percent (%): 100% effect=plants have died off, 0% effect=as control plants).
(§7) Tables C1 to C3 below show the effects of selected compounds of the general formula (I) according to table 1 on various crop plants and an application rate corresponding to 320 g/ha or below obtained by the experimental procedure mentioned above in biology section A.

Brassica napus (BRSNW) [23] = test: Pre-emergence effects on crop plants; settings: 320 g/ha, crop plant
Excerpt: as §5, §6, §7

Zea Mays (ZEAMX) [24] = test: Pre-emergence effects on crop plants; settings: 320 g/ha, crop plant
Excerpt: as §5, §6, §7

[25] = test system: Cyperus esculentus (CYPES); test: Herbicidal post-emergence action; settings: 1280 g/ha, assessed after ca. 3 weeks
How it was run: as §1

[26] = test system: Amaranthus retroflexus (AMARE); test: Herbicidal pre-emergence action; settings: 1280 g/ha, graded after ca. 3 weeks
How it was run: as §4

O=C(CC1CCC(=O)N1Cc1cccc(F)c1F)NC1CCCc2ccccc21 (mixture of isomers) [Example I-066]
100%: Post-emergence activity against AMARE [1]

O=C(O)CC1CCC(=O)N1Cc1cccc(Cl)c1F (racemic) [Example I-001, 2-[1-[(3-chloro-2-fluorophenyl)methyl]-5-oxo-pyrrolidin-2-yl]acetic acid]
90%: Post-emergence activity against DIGSA [2] | Post-emergence activity against ECHCG [3] | Post-emergence activity against ALOMY [5] | Post-emergence activity against AVEFA (Avena fatua (AVEFA) [6]) | Pre-emergence activity against VERPE (Veronica persica (VERPE)) | Pre-emergence activity against LOLRI (Lolium rigidum (LOLRI) [13]) | Pre-emergence activity against ALOMY ([14]; 1280 g/ha) | Pre-emergence activity against LOLMU [17]
100%: Post-emergence activity against LOLMU [8] | Pre-emergence activity against DIGSA [10] | Pre-emergence activity against AVEFA (Avena fatua (AVEFA) [15]; 320 g/ha) | Pre-emergence activity against AVEFA (Avena fatua (AVEFA) [15]; 1280 g/ha) | Pre-emergence activity against SETVI (Setaria viridis (SETVI) [16]; 320 g/ha)
0%: post-emergence activity against BRSNW (Brassica napus (BRSNW) [9]; application rate 320 g/ha)
80%: Post-emergence activity against LOLRI (Lolium rigidum (LOLRI) [4]) | Post-emergence activity against SETVI (Setaria viridis (SETVI) [7]) | Pre-emergence activity against ECHCG [11] | Pre-emergence activity against POLCO ([12]; 320 g/ha) | Pre-emergence activity against ALOMY ([14]; 320 g/ha) | Pre-emergence activity against CYPES [18]

COCCOC(=O)CC1CCC(=O)N1Cc1cccc(F)c1F (racemic) [Example I-015]
90%: Post-emergence activity against STEME (Stellaria media (STEME)) | Post-emergence activity against AVEFA (Avena fatua (AVEFA) [6]) | Post-emergence activity against SETVI (Setaria viridis (SETVI) [7]) | Pre-emergence activity against ECHCG [11] | Pre-emergence activity against ALOMY ([14]; 1280 g/ha) | Pre-emergence activity against VIOTR (Viola tricolor (VIOTR)) | Pre-emergence activity against SETVI (Setaria viridis (SETVI) [16]; 1280 g/ha)
20%: pre-emergence activity against BRSNW (crop damage) (Brassica napus (BRSNW) [23])
0%: post-emergence activity against GLXMA (crop damage) (Glycine max (GLXMA) [20]) | post-emergence activity against BRSNW (Brassica napus (BRSNW) [9]; application rate 80 g/ha) | post-emergence activity against ZEAMX (crop damage) (Zea Mays (ZEAMX) [21]) | pre-emergence activity against GLXMA (crop damage) (Glycine max (GLXMA) [22]) | pre-emergence activity against ZEAMX (crop damage) (Zea Mays (ZEAMX) [24])
80%: Post-emergence activity against DIGSA [2] | Post-emergence activity against POLCO [19] | Post-emergence activity against LOLRI (Lolium rigidum (LOLRI) [4]) | Post-emergence activity against LOLMU [8] | Pre-emergence activity against POLCO ([12]; 1280 g/ha) | Pre-emergence activity against LOLRI (Lolium rigidum (LOLRI) [13]) | Pre-emergence activity against LOLMU [17] | Pre-emergence activity against CYPES [18]
100%: Post-emergence activity against ECHCG [3] | Pre-emergence activity against DIGSA [10] | Pre-emergence activity against AVEFA (Avena fatua (AVEFA) [15]; 1280 g/ha)

C=CCOC(=O)CC1CCC(=O)N1Cc1cccc(F)c1F (racemic) [Example I-021]
90%: Post-emergence activity against ECHCG [3] | Post-emergence activity against SETVI (Setaria viridis (SETVI) [7]) | Post-emergence activity against LOLMU [8] | Pre-emergence activity against ALOMY ([14]; 1280 g/ha) | Pre-emergence activity against LOLMU [17]
80%: Post-emergence activity against POLCO [19] | Post-emergence activity against ALOMY [5] | Post-emergence activity against AVEFA (Avena fatua (AVEFA) [6]) | Post-emergence activity against CYPES [25] | Pre-emergence activity against ECHCG [11] | Pre-emergence activity against POLCO ([12]; 1280 g/ha) | Pre-emergence activity against SETVI (Setaria viridis (SETVI) [16]; 1280 g/ha)
100%: Pre-emergence activity against AVEFA (Avena fatua (AVEFA) [15]; 1280 g/ha)

COC(=O)C1(NC(=O)CC2CCC(=O)N2Cc2cccc(F)c2F)CC1 (racemic) [Example I-048]
80%: Pre-emergence activity against ALOMY ([14]; 1280 g/ha) | Pre-emergence activity against LOLMU [17]
90%: Pre-emergence activity against AVEFA (Avena fatua (AVEFA) [15]; 1280 g/ha) | Pre-emergence activity against AMARE [26]
